Source: US11344009B2, “All sterile males of culicine mosquitoes: a method of creation” (priority 2014, dated 2022)

Columns and labels:
[1] = tested on: wMel Wolbachia in Ae. albopictus strains (Hanoi 1 and Laos2); experiment: Dox challenge of Wolbachia trans-infected lines, PCR re-test for presence of Wolbachia (wsp primers 81F/691R); type: in vivo, Aedes albopictus; details: for Pupae (number from 50 3rd-4th larvae on Dox) / 3 day old adult (on Dox), number: Dox 30 mg/L; for 3 day old adult (on Dox), number: 4-5 days from third larvae to 3 day old adults; for 81F/691R PCR test, number with Wolbachia / 81F/691R PCR test, share with Wolbachia: after Dox 30 mg/L challenge
Protocol: Ae. albopictus strains (Hanoi 1 and Laos2) were trans-infected with Wolbachia from a Drosophila line (Oregon-R). This fly carries wMel Wolbachia. Drosophila embryos were collected as mentioned above. 1-2 day old virgin females were anaesthetized and microinjected directly in the thorax. […] These lines were maintained at a standard condition and challenged with the presence of Dox (30 mg/L) in 4-5 days from the third larvae to 3 day old adults. They were PCR re-tested for the presence of Wolbachia after the challenge using universal wsp primers 81F and 691R^38.

[2] = tested on: Ae. aegypti strain (Hanoi1); experiment: Transient expression of long dsmRNA Tra-2 RNAi construct (AaKLC2.1-long-02) injected into embryos; female lethality induced by different Dox concentrations; type: in vivo, Aedes aegypti; details: for Hatched rate (hatched/injected embryos): 500 embryos injected with AaKLC2.1-long-02
From the text: In this example, we show the transient expression of a Tra-2 RNAi construct which created long dsmRNAs. The detail method to create this construct was described in Example 4. The promoter driving rtTA protein was AaKLC2.1. In the presence of doxycycline (Dox), Tet-On Advanced binds to the tetracycline response element in pTre-tight, and produces high-level tran-scription of the downstream gene. Ae. aegypti strain (Hanoi1) was fed on blood containing three different Dox concentrations to produce eggs containing different Dox doses (mg/litre). The construct named AaKLC2.1-long-02 after Maxiprep purification was diluted in 1^x injection buffer at 1.6 μg/μl. Embryos were desiccated briefly in 50 sec and stuck into a plastic cover slip via a piece of double sticky tape. The Voltalef oil was used to cover the embryos. After injection, the cover slip was then immediately transferred into a cover slip staining rack which was kept in a sealed plastic box with 100% humidity at 27° C. for 3-4 days and then hatched in Dox deoxygenated water. 500 embryos were injected in each Dox concentration. Larvae were reared under standard conditions. Three different Dox concentrations which were equivalent to the concentrations in blood meals were added to the rearing water. The sex ratio among survivors of each Dox concentration were shown in the below table.

Tra-2 = experiment: Q-PCR of Tra-2 knockdown level in Tra-2 RNAi/Tet-on transgenic males induced by Dox; type: in vivo, Aedes aegypti
Protocol: (§1) The Ae. aegypti strain named Hanoi1 was transformed with a Tra-2 RNAi (long dsmRNA) construct. This construct was assembled with rtTA(pTet-on advanced) and pTre-tight regulatory system as mentioned in Example 1. The strain was challenged with Dox three different concentrations (0.3 mg/L; 3 mg/L and 30 mg/L) between the third larvae stage and 3 day old adult. The males from each Dox concentration challenge were divided into two groups; one group was Q-PCR to reveal the knockdown level of Tra-2. The other group was outcrossed with wild type females. Total RNA from Hanoi 1 wild type males and Tra-2 RNAi/Hanoi 1 transgenic males were isolated in pools of 5 males in 3 biological replicates. The primers used for Actin5C (endogenous reference gene) were F: (5′-[…]-3′) (SEQ ID NO: 53) and R: (5′-[…]-3′) (SEQ ID NO: 54) which produced a 125 bp fragment. Primers used for amplifying Tra-2, which produced a 125 bp fragment nearby the Tra-2 RNAi target site, were: Forward: (5′ […] 3′) (SEQ ID NO: 55) and Reverse: (5′ […] 3′) (SEQ ID NO: 56). Three biological replicates were carried out in each Dox condition. The knockdown of expression levels were calculated by the relative standard curve method (Applied Biosystems), in which Act5C as an endogenous reference and wild type Hanoi 1 as an exogenous calibrator. PCR cycle was 95° C. for 15 mins; 45 cycles of 10 sec at 95° C., 10 sec at XC, 20 sec at 72° C., plate reading. X is annealing temperature, of which 59° C. for the reference gene Actin5C and 55° C. was used for Tra-2 primers. […] 0.3 mg/L caused a slight difference in comparison with wild type (96.98% wild type). […] See details in FIG. 2.

[3] = tested on: Ae. aegypti strain Hanoi1 transformed with Tra-2 RNAi (long dsmRNA) construct; experiment: Outcross of Dox-induced homozygous Tra-2 RNAi transgenic males with wild type virgin females, sex ratio of the crosses; type: in vivo, Aedes aegypti
Protocol: as §1
10 homozygous males (3 day old) from each concentration were crossed with 10 wild type virgin females.

## C[C@H]1c2cccc(O)c2C(=O)C2=C(O)[C@]3(O)C(=O)C(C(N)=O)=C(O)[C@@H](N(C)C)[C@@H]3[C@@H](O)[C@@H]21 [Dox, Doxycycline]
[1]; wMel/Ae.albopictus Hanoi 1
  Pupae (number from 50 3rd-4th larvae on Dox): 50
  3 day old adult (on Dox), number: 49
  81F/691R PCR test, number with Wolbachia: 49
  81F/691R PCR test, share with Wolbachia: 100%
[1]; wMel/Ae.albopictus Laos2
  Pupae (number from 50 3rd-4th larvae on Dox): 50
  3 day old adult (on Dox), number: 50
  81F/691R PCR test, number with Wolbachia: 50
  81F/691R PCR test, share with Wolbachia: 100%
[2]; 0.3 mg of Dox/L
  Hatched rate: (24.4) %
  Hatched rate (hatched/injected embryos): 122/500
[2]; 3 mg of Dox/L
  Hatched rate: (18.6) %
  Hatched rate (hatched/injected embryos): 93/500
[2]; 30 mg of Dox/L
  Hatched rate: (14.8) %
  Hatched rate (hatched/injected embryos): 74/500
Tra-2; Dox 0.3 mg/L, third larvae stage to 3 day old adult
  Expression level of Tra-2 in males: 96.98 % wild type
Tra-2; Dox 3 mg/L, third larvae stage to 3 day old adult
  Expression level of Tra-2 in males: 73.7 % wild type
Tra-2; Dox 30 mg/L, after 5 days treatment
  Expression level of Tra-2 in males: 33.26 % wild type
[3]; males induced at 0.3 mg/L Dox
  Hatch rate (value in brackets): 95.40
  Male ratio (value in brackets): 51.53
[3]; males induced at 3 mg/L Dox
  Hatch rate (value in brackets): 90.60
  Male ratio (value in brackets): 64.88
[3]; males induced at 30 mg/L Dox
  Hatch rate (value in brackets): 91.60
  Male ratio (value in brackets): 93.47
